Article PMC8740778, “Translational Pharmacokinetic–Pharmacodynamic Modeling of NaV1.7 Inhibitor MK-2075 to Inform Human Efficacious Dose” (Frontiers in Pharmacology, 2021)
Marks after values point to notes of the source that are not given here.

What was measured:
[1] = design: method as in Rothenberg et al., 2019; conditions: healthy volunteers; no exposure-related pattern; ref Rothenberg et al., 2019; cited from earlier work
[2] = trough plasma concentration just prior to patient-controlled subsequent dose; postoperative pain; ref Dahlstrom et al., 1982 (morphine), Lehmann et al., 1990 (tramadol); cited from earlier work
BALB/c male mice = assay: Mouse tail flick latency; assay type: in vivo; conditions: at clinical efficacious concentrations

SMILES	Hyposmia (reduced sense of smell) in clinical study [1]	Clinical MEC, mean (range) [2]	Percent of the maximum possible effect in mouse tail flick latency (BALB/c male mice)
O=C(NS(=O)(=O)N1CCC1)c1cc(C2CC2)c(OCC23CC4CC(CC(C4)C2)C3)cc1F [GDC-0276]	a couple of incidents of hyposmia were reported		
COc1cccc(C2(O)CCCCC2CN(C)C)c1 (centres unmarked) [Tramadol]		1.092 (0.077–3.744) ^c µM	approximately 50%
CN1CC[C@]23c4c5ccc(O)c4O[C@H]2[C@@H](O)C=C[C@H]3[C@H]1C5 [Morphine]		0.074 (0.032–0.116) ^b µM	approximately 50%
